Results published in article PMC4552634, “A New Set of Chemical Starting Points with Plasmodium falciparum Transmission-Blocking Potential for Antimalarial Drug Discovery” (PLoS ONE, 2015).
Like-named read-outs stand apart in the source and are kept apart here.

Assays:
[1] = system: P. falciparum asexual stages; conditions: asexual stages; TCAMS data; read-out: IC50 asexual; cited from earlier work
[2] = system: P. falciparum stage V gametocytes; assay: Gametocytocidal ATP bioluminescence assay (single point 5 μM and 1 μM, dose-response); type: cell-based, Plasmodium falciparum; conditions: for Ratio IC50 HepG2/IC50 P. falciparum: IC50 HepG2 divided by IC50 P. falciparum gametocytes
Protocol: Purified stage IV-V gametocytes were obtained as previously described [10]. Single point ATP bioluminescence assay and dose–response of positive hits was determined in accordance with the previously published protocol [10].

[3] = system: HepG2 cells; assay: Cytotoxicity in HepG2 cells (intracellular ATP, ATPlite, 48 h); type: cell-based, human; conditions: HepG2 cells; IC50 per ratio column head; unit inferred
[4] = P. falciparum gametocytes, average, read-out: IC50 Pf Gametocytes average, IC50 (µM) average
[5] = sexual stages (gametocytes), dose-response, read-out: IC50 sexual

Compound | IC50 [1] [nM] | Ratio IC50 HepG2/IC50 P. falciparum [2] | IC50 [2, 4] [µM] | IC50 [2, 5] [µM] | IC50 [3] [nM]
Fc1ccc(N(c2nc(-c3cc(F)cc(C(F)(F)F)c3)cs2)C2CCNCC2)cc1 [TCMDC-136656] | 956 | 2 | 3.28 | 3.27 | 6600
CN1CCN(CCCN(Cc2cccc(-c3ccc(CNCCc4ccccc4)cc3)c2)C(=O)c2cccs2)CC1 [TCMDC-140568] | 716 | 6 | 0.89 |  | 5600
CN(C)CCCOc1ccc(CN2CCC(c3c[nH]c4ccc(NCC5CCCCC5)cc34)CC2)cc1 [TCMDC-140737] | 678 | 14 | 0.5 |  | 6800
COc1cccc(CCc2c(CCNCCCCCCNCCc3ccccc3)ccc(OC)c2OC)c1 [TCMDC-132105] | 721 | 44 | 0.18 | 0.177 | 7700
O=C(c1cccs1)N(Cc1cccc(-c2ccc(CNC3CCCC3)cc2)c1)C1CCN(Cc2ccccc2)CC1 [TCMDC-140567] | 1130 | 8 | 0.85 | 0.845 | 7100
COc1cc2ccccc2c(OC)c1CNCCCCCCNCc1c(OC)cc2ccccc2c1OC [TCMDC-137843] | 988 | 13 | 0.32 | 0.319 | 4250
CCNCc1cccc(-c2ccc3ccnc(N)c3c2)c1 [TCMDC-136869] | 47 | 7.56 | 1.66 |  | 12500
CC(C)(C)c1ccc(-c2cc3c(ccc4nc(N)nc(N)c43)[nH]2)cc1 [TCMDC-137977] | 113 | 6 | 0.55 |  | 3260
CN1CCC(N(Cc2ccc(-c3ccc(Cl)cc3)cc2)C(=O)Cn2c(CCc3cccc(F)c3F)cc(=O)c3ccccc32)CC1 [TCMDC-141357] | 865 | 2 | 3.43 | 3.43 | 6700
Cc1cc(N[C@@H](Cc2ccccc2)C(=O)NCCc2ccccc2)nc(NCCc2ccccc2)n1 [TCMDC-134776] | 850 | <1 | > 10 |  | 13600
Cc1ccc(C)c(NC(=O)CC2C(=O)N(c3ccccc3)C(=S)N2Cc2ccco2)c1 (stereo not shown) [TCMDC-124000] | 570 | >7.7 | 1.3 |  | > 10000
CC(C)CCNCc1ccc(OCc2cccc(COc3ccc(CNCCC(C)C)cc3I)c2)c(I)c1 [TCMDC-137274] | 453 | 14 | 0.37 |  | 5300
CC(=O)N(Cc1ccc(CC(C)NCCc2cccc(Cl)c2)cc1)Cc1ccc(CC(C)NCCc2cccc(Cl)c2)cc1 (stereo not shown) [TCMDC-139678] | 783 | 1.64 | 1.4 |  | 2300
C=C(C)Cn1cc(C2CCN(CCN3CCC(CNC(=O)c4ccc(-c5ccc(C#N)cc5)cc4)CC3)CC2)c2ccccc21 [TCMDC-138854] | 433 | 1.26 | 2.93 |  | 3700
CC(CCCCC(=O)Nc1ccc(CC(C)NCCc2cccc(Cl)c2)cc1)NCCc1cccc(Cl)c1 (stereo not shown) [TCMDC-139799] | 1010 | 4 | 1.66 | 1.66 | 6590
Cc1oc(-c2ccc(Cl)cc2)cc1C(=O)NCCC1CCN(CCCCCNC(=O)/C=C/c2ccc(Cl)c(Cl)c2)CC1 [TCMDC-140009] | 446 | 0.755 | 5.43 |  | 4100
CCN=C1NC2=C(CC(C(C)(C)C)CC2)C2(CCC(C(C)(C)C)CC2)S1 (stereo not shown) [TCMDC-131288] | 834 | 5 | 3 |  | 14300
CCn1c(Sc2ccc([N+](=O)[O-])c(C#N)c2)nnc1-c1cccc(Cl)c1 [TCMDC-135234] | 873 | >8 | 3.04 |  | > 25000
FC(F)(F)COc1ccc(CNCCCCCCNCc2ccc(OCC(F)(F)F)c3ccccc23)c2ccccc12 [TCMDC-137853] | 400 | 55 | 0.055 |  | 3000
FC(F)(F)COc1ccc2ccccc2c1CCNCCCCNCCc1c(OCC(F)(F)F)ccc2ccccc12 [TCMDC-137317] | 426 | 2.41 | 1.37 |  | 3300
CC(C)CNCc1cccc(-c2ccccc2CN(C(=O)NCCc2ccccc2)C2CCN(Cc3ccccc3)CC2)c1 [TCMDC-140608] | 1170 | <1 | > 10 |  | 6600
CCc1c(CCNCCCCCCNCCc2ccc(OC)c(OC)c2C)ccc(OC)c1OC [TCMDC-132051] | 1570 | 10 | 0.77 |  | 7750

Compound | IC50 [1] [nM] | Ratio IC50 HepG2/IC50 P. falciparum [2] | IC50 [2, 4] [µM] | IC50 [2, 5] [µM] | IC50 [3] [nM]
COc1ccc2c(c1CNCCCCCCNCc1c(OC)ccc3c1CCCC3)CCCC2 [TCMDC-137817] | 907 | 9 | 0.42 |  | 3830
CCc1cc(COc2ccc(CNCCC(C)C)cc2I)c(OCc2ccccc2)c(COc2ccc(CNCCC(C)C)cc2I)c1 [TCMDC-137255] | 1110 | 5.71 | 1.02 | 1.01 | 5800
COc1ccc2ccc(OC)c(CNCCCCCCNCc3c(OC)ccc4ccc(OC)cc34)c2c1 [TCMDC-137796] | 699 | 12 | 0.29 | 0.285 | 3400
NCCCOc1cnc(-c2ccccc2)c2nc(-c3nonc3N)n(CCc3ccccc3)c12 [TCMDC-136216] | 1270 | 4 | 1.4 |  | 5610
CCc1c(CCNCCCCCCNCCc2ccc(Br)cc2)ccc(OC)c1OC [TCMDC-132045] | 232 | 15 | 0.22 | 0.215 | 3200
CCCCc1ccc(CCNCCCCCCNCCc2ccc(O)c(O)c2)cc1 [TCMDC-131281] | 1070 | 15 | 0.54 | 0.545 | 8190
CCc1c(CCNCCc2cccc(CCNCCc3ccc(OC)c(OC)c3CC)c2)ccc(OC)c1OC [TCMDC-132056] | 361 | 7.47 | 0.55 |  | 4110
CC(C)COc1ccc2ccccc2c1CNCCCCCCNCc1c(OCC(C)C)ccc2ccccc12 [TCMDC-137972] | 695 | 18 | 0.1 | 0.103 | 1880
COc1c(C2CCN(CCN3CCC(CNC(=O)c4ccc(-c5ccc(C#N)cc5)cc4)CC3)CC2)ccc2c1CCCC2 [TCMDC-138859] | 455 | 2.83 | 1.17 | 1.17 | 3300
CC(=O)c1ccc2nc[nH]c(=O)c2c1 [TCMDC-138172] | 722 | <3.9 | 0.4 |  | < 1560
CC(C)Oc1ccc2ccccc2c1CNCCCCCCNCc1c(OC(C)C)ccc2ccccc12 [TCMDC-137965] | 612 | 17 | 0.14 |  | 2380
CCCCCCCN1CC[C@@H](CCCc2ccnc3ccc(OCC4CCCNC4)cc23)[C@@H](CC)C1 (stereo partly shown) [TCMDC-139816] | 625 | 14 | 0.3 |  | 4180
c1ccc2c(NCCCCCCCCNc3ccnc4ccccc34)ccnc2c1 [TCMDC-137751] | 155 | 3.46 | 1.08 |  | 3740
O=C(NCCCCN1CCC(c2c[nH]c3ccc(-c4ccccc4)cc23)CC1)c1ccc(-c2ccccc2)cc1 [TCMDC-139064] | 985 | 5 | 1.83 |  | 9400
COc1ccc(CCNC(C)Cc2ccc(C(=O)Nc3ccc(CC(C)NCCc4cccc(Cl)c4)cc3)cc2)cc1 (stereo not shown) [TCMDC-139750] | 248 | 4 | 0.62 |  | 2400
COc1ccc(CCNCCCCCCNCCc2ccc(-c3ccccc3)cc2)cc1OC [TCMDC-131267] | 958 | 19 | 0.17 | 0.173 | 3250
Cc1cc(NCCc2ccccc2)nc(/N=C(\N)Nc2ccccc2Cl)n1 [TCMDC-138370] | 789 | 2.79 | 4.87 |  | 13600
CCC(CSC1CCCCC1)N(C)CCN(C)C(CC)CSC1CCCCC1 (stereo not shown) [TCMDC-131456] | 314 | 0.621 | 1.4 |  | 870
CCCCOc1c(CCNCCCCNCCc2cc(OC)c3ccccc3c2OCCCC)cc(OC)c2ccccc12 [TCMDC-137848] | 925 | 39 | 0.08 |  | 3100
COc1c(CCNCCCCNCCc2cc(Cl)c3ccccc3c2OC)cc(Cl)c2ccccc12 [TCMDC-137869] | 168 | 40 | 0.08 | 0.083 | 3360
O=C(C1CC1c1ccccc1)N(Cc1ccc(-c2ccc(CNCCc3ccccc3)cc2)cc1)C1CCNCC1 (stereo not shown) [TCMDC-141443] | 1110 | 17 | 0.39 | 0.385 | 6700
